Measurements published in patent US20250082664A1, “NUCLEOSIDE FORMULATION” (PHION THERAPEUTICS LTD, priority 2021, published 2025).

Tests used:
[1] = Ioka T, et al. 2013; cited from earlier work
BxPC-3 cells = assay: Cell cycle analysis (propidium iodide, FACS); type: cell-based; details: 48 hours following treatment, 2 μM (1 μg) for 5 h, manual formulations
Description: 1.5×10^5 BxPC-3 cells were plated in 6-well plates (Nunc, UK) and left to adhere for 24 h. Cells were transferred to serum free media for 24-h, to ensure synchronisation of cells. Subsequently, cells were incubated with RALA/dFdCTP nanoparticles at a concentration of 2 μM (1 μg) for 5 h before removal of treatment media and the addition of fresh complete media. 48 h following treatment, cells were trypsinsed and fixed in ice-cold 70% ethanol for 1 hour at 4° C. Cells were washed twice in Phosphate Buffered Saline (PBS) for 5 min, before resuspension in 500 μL PBS and the addition of 50 μL of 100 μg/ml RNase (Invitrogen, UK). 10 minutes prior to running samples on fluorescence-activated cell sorting (FACS), 10 μl of a 100 μg/ml stock of propidium iodide (PI) was added. Controls include: untreated; dCTP (negative control); RALA/dCTP (RALA control); dFdCTP (drug control); and gemcitabine (comparator control).
A cell cycle analysis following treatment with RALA/dFdCTP was undertaken. If dFdCTP had been successfully delivered to cells, it would be incorporated during DNA polymerase, preventing DNA chain elongation. This would ultimately prevent cells from actively proliferating. This means that during cell cycling, the cycle will be arrested at the S-phase. Therefore, if there are a higher percentage of the cells in the (G0/G1+−S) phases than compared to the G2 phase, it is an indicator that dFdCTP has affected the cell cycle.

red blood cell (RBC) = assay: Haemolysis assay; type: cell-based; details: ovine RBC, equivalent of 10-30 μg dFdCTP, 1 h at 37° C., isotonic trehalose solution
Description: Defibrinated ovine whole blood (5 ml, TCS Biosciences Ltd, UK) was centrifuged at 500 g in citrate-phosphate buffer (15 ml, 0.1 M citric acid, C6HsO7, and 0.2 M disodium hydrogen phosphate, Na2HPO4) for 20 min to separate erythrocytes. The erythrocytes were subsequently washed three times with 20 mL of citrate-phosphate buffer by centrifugation and re-suspended in citrate-phosphate buffer solution at a concentration of 1×10^8 cells/mL. A Countess II automated cell counter (ThermoFisher, UK) was used to count erythrocytes by first diluting the erythrocyte suspension 1:10,000 in buffer. Subsequently, isotonic solutions (of osmolality in the range 290-310 mOsmol/kg) of RALA/dFdCTP (MR2.0) nanoparticles mixed with trehalose, or dFdCTP and trehalose was added to the erythrocyte suspension, with the equivalent of 10-30 μg dFdCTP added, and the solution incubated for 1 h at 37° C. Following incubation, the erythrocyte suspensions were centrifuged for 90 s at 400 g to form a cell pellet. Absorbance of the supernatant was measured via a Nanodrop 2000c UV-Vis spectrophotometer (Thermo Scientific, UK) at 541 nm. 1% Triton X-100 was used as a positive control representing 100% haemolysis; and citrate-phosphate buffer at pH 7.4 was used as a negative control.

| SMILES | overall clinical response rate [1] [%] | Cells in (G0/G1 + S) Phase (BxPC-3 cells) [%] | haemolysis (red blood cell (RBC)) [%] |
| --- | --- | --- | --- |
| Nc1ccn([C@@H]2O[C@H](CO)[C@@H](O)C2(F)F)c(=O)n1 [Gemcitabine, 2′,2′-difluoro-2′-deoxycytidine] | 6 | 60.2 | – |
| Nc1ccn([C@@H]2O[C@H](COP(=O)(O)OP(=O)(O)OP(=O)(O)O)[C@@H](O)C2(F)F)c(=O)n1 [dFdCTP, 2′,2′-difluorodeoxycytidine 5′-triphosphate] | – | 66.4 | > 20 |
| Nc1ccn([C@H]2C[C@H](O)[C@@H](COP(=O)(O)OP(=O)(O)OP(=O)(O)O)O2)c(=O)n1 [dCTP, deoxycytidine triphosphate] | – | 49.9 | – |
